From patent publication US20080119457A1, “Benzene, Pyridine, and Pyridazine Derivatives” (SERENEX, INC., priority 2006, published 2008) come the findings set out here.

The subject of the assay is HSP-90 (heat shock protein 90). Put plainly: Determination of affinity for HSP-90 (elution from purine affinity column). In kind it is binding. Also on record: key: +++ stands for very high; ++ for high; + for moderate. The procedure:
Affinity of test compounds for HSP-90 is determined as follows: Protein mixtures obtained from a variety of organ tissues (for example: spleen, liver and lung) are reversibly bound to a purine affinity column to capture purine-binding proteins, especially HSP-90. The purine affinity column is washed several times, and then eluted with 20 μM, 100 μM, and 500 μM of test compound. Compounds of Formula I elute HP-90 in a dose-dependent manner vs. a control elution using dimethylsulfoxide. The elution profile of Formula I compounds is determined by 1-dimensional SDS polyacrylamide gel electrophoresis. Gels are stained with a fluorescent stain such as sypro ruby (a highly sensitive fluorescent protein stain that can readily detect less than 1 fmol of total protein, i.e., less than 0.04 ng for a 40 kDa protein) or silver nitrate. The gels are imaged using a standard flat bed gel imager and the amount of protein estimated by densitometry. The percent of HSP-90 protein eluted from the column at each concentration is determined and IC50 values are calculated from these estimates.

With `Cn1nc(-c2ccc(C(N)=O)c(NC3CCOCC3)c2)c2c1C(=O)CC(C)(C)C2` [Compound 3, 2-(Tetrahydro-pyran-4-ylamino)-4-(1,5,5-trimethyl-7-oxo-4,5,6,7-tetrahydro-1H-indazol-3-yl)-benzamide], the “relative binding affinity to HSP-90” value is recorded as “+++”.

`Cc1cc(=O)c2c(C)nn(-c3ccc(C(N)=O)c(NC4CCOCC4)c3)c2o1` [Compound 7, 4-(3,6-Dimethyl-4-oxo-4H-pyrano[2,3-c]pyrazol-1-yl)-2-(tetrahydro-pyran-4-ylamino)-benzamide]: the “relative binding affinity to HSP-90” value is listed as “+++”. In the case of `Cc1nn(-c2ccc(C(N)=O)c(NC3CCOCC3)c2)c2nc[nH]c(=O)c12` [Compound 9, 4-(3-Methyl-4-oxo-4,5-dihydro-pyrazolo[3,4-d]pyrimidin-1-yl)-2-(tetrahydro-pyran-4-ylamino)-benzamide], the “relative binding affinity to HSP-90” value is reported as “+”. The same measure for `COc1ccc2ccn(-c3ccc(C#N)c(N[C@H]4CC[C@H](O)CC4)c3)c2c1` [Compound 19, 2-(4-Hydroxycyclohexylamino)-4-(6-methoxyindol-1-yl)benzonitrile]: “+++”; for `COc1cccc2c1ccn2-c1ccc(C#N)c(N[C@H]2CC[C@H](O)CC2)c1` [Compound 21, 2-(4-Hydroxycyclohexylamino)-4-(4-methoxyindol-1-yl)benzonitrile]: “+++”; for `CC(=O)c1ccc(-c2ccc(C#N)c(NC3CCC(O)CC3)c2)s1` (centres unmarked) [Compound 23, 4-(5-Acetyl-thiophen-2-yl)-2-(4-hydroxy-cyclohexylamino)-benzonitrile]: “++”. For `COc1cc2ccn(-c3ccc(C#N)c(Nc4ccccc4)c3)c2cc1OC` [Compound 34, 4-(5,6-dimethoxy-1H-indol-1-yl)-2-(phenylamino)benzonitrile] the value was “+”; for `Cc1nc(-c2ccc(C#N)c(NC3CCOCC3)c2)n2c1C(=O)CCC2` [Compound 35, 4-(1-methyl-8-oxo-5,6,7,8-tetrahydroimidazo[1,5-a]pyridin-3-yl)-2-(tetrahydro-2H-pyran-4-ylamino)benzonitrile], “+++”. The same measure for `NC(=O)c1ccc(-n2ccc3ccccc32)c(Cl)c1` [Compound 46, 3-chloro-4-(1H-indol-1-yl)benzamide]: “++”; for `COCC(C)Nc1cc(-n2cc(C)c(C(C)=O)c2C)ccc1C(N)=O` (centres unmarked) [Compound 47, 4-(3-acetyl-2,4-dimethyl-1H-pyrrol-1-yl)-2-(1-methoxypropan-2-ylamino)benzamide]: “++”. For the molecule `N#Cc1ccc(-c2ccc3n2CCCC3=O)cc1NC1CCC(O)CC1` (centres unmarked) [Compound 51, 2-(4-hydroxycyclohexylamino)-4-(8-oxo-5,6,7,8-tetrahydroindolizin-3-yl)benzonitrile], the “relative binding affinity to HSP-90” value was “+++”.
